Measured values as given in patent US9260760B2, “Method for determining complete response to anticancer therapy” (Board of Regents, The University of Texas System, priority 2012, dated 2016).
Several values for one entry are separate records, joined by “and”; a condition that tells them apart may be missing. Equal values may be shown once.

Experiments:
[1] = Study 1: treatment-related toxicity of XCEL (CTC version 2.0); type: in vivo, human
From the text: The radiation was delivered to the target area using 18 MV photons with 3-D conformal planning technique. The dose of radiation was either 35-40 Gy (n=18) or >45 Gy (n=15) with dose radiation missing in one patient. […] Celecoxib was continued with capecitabine to prevent HFS and to improve survival.
All patients were subjected to routine clinical examinations, laboratory analyses, and computed tomography. Patients were seen weekly during radiotherapy if treated on site or every 6-9 weeks with physical examinations, laboratory tests, and computed tomography. Treatment-related toxicity was graded using the National Institutes of Health's Common Toxicities Criteria (CTC) version 2.0. Tumor responses were evaluated using RECIST criteria. […] Overall response rate was defined as the sum of the complete and partial response rates and the tumor control rate was defined as the sum of overall response rates with stable disease rates. The date of death was ascertained through the cancer registry or through a search of patients' social security numbers in the Social Security Death Index (ssdi.genealogy.rootsweb.com).

[2] = system: metastatic colorectal cancer; assay: Study 2: complete responders to XCEL; CR duration, PFS, OS, relapse; type: in vivo, human
From the text: This retrospective study was approved by the institutional review board of The University of Texas M. D. Anderson Cancer Center. […] All patients were subjected to routine clinical examinations, laboratory analyses, and computed tomography before receiving XCEL described previously. All patient data were to be independently audited and radiographic images depicting CR were reviewed and agreed upon by two independent radiologists. All 19 patients had pathological confirmation of metastatic cancer ( ). Treatment-related toxicity was graded using the National Institutes of Health's Common Terminology Criteria for Adverse Events, version 3.0. Tumor responses were evaluated using RECIST criteria with complete response defined as complete radiographic disappearance of measurable or evaluable disease and normalization of tumor marker. The death date was ascertained by searching (ssdi.genealogy.rootsweb.com) using social security numbers. The cutoff point for collection of survival was October 2005. Continuous variables were summarized using the mean (±standard deviation) or the median (range). Categorical variables were summarized in frequency tables. Comparisons of important subgroups for these variables were made using the chi-square test or Fisher's exact test, as appropriate. Time to complete response was defined as time to start XCEL therapy to first documented radiographic complete response. Duration of complete response was defined as time to first CR to first recurrence or death. […] Patients were censored at the date of last follow-up if they had not progressed or died. Progression-free and overall survival distributions were summarized using the method of Kaplan and Meier. All response rates, progression-free survival and overall survival were calculated based on the 95% confidence interval (CI). Event chart was created using symbolized events versus time descriptively.

**Q.** With `Cc1ccc(-c2cc(C(F)(F)F)nn2-c2ccc(S(N)(=O)=O)cc2)cc1` [XCEL] as the molecule, how does the “Mild serum creatinine elevations” value ([1]; 3 patients after 14 to 32 months of XCEL, reversible upon discontinuation of celecoxib) read?
**A.** 1.6 to 2.0 mg/dL

**Q.** And the “grade ⅔ HFS” value ([1]; expanded study with longer follow up)?
**A.** 17%

**Q.** And the “gastrointestinal bleeding, other cardiovascular events, deaths” value ([1]; in vivo)?
**A.** No gastrointestinal bleeding, other cardiovascular events, or deaths were noted

**Q.** What about the “median time to HFS peak” value ([1]; n=12) of the same molecule?
**A.** 6.0 months and 6 months

**Q.** And the “median time to HFS onset” value ([1]; n=17)?
**A.** 3.8 months

**Q.** And the “Incidence of grade 1 HFS” value ([1]; n=65)?
**A.** 14%

**Q.** And the “Incidence of grade 2 HFS” value ([1]; n=65)?
**A.** 15%

**Q.** What about the “Incidence of grade 3 HFS” value ([1]; n=65) of the same molecule?
**A.** 2%

**Q.** And the “grade ¾ lymphopenia” value ([1]; n=65)?
**A.** 24%

**Q.** What about the “lymphopenia of all grades” value ([1]; n=65) of the same molecule?
**A.** 56%

**Q.** What about the relapse ([2]; all (eight relapses)) of the same molecule?
**A.** 41%

**Q.** And the “carcinoma embryonic antigen level” value ([2]; all nine patients with elevated CEA)?
**A.** normalization of CEA

**Q.** And the “Five-year OS” value ([2]; all patients)?
**A.** 64%

**Q.** What about the “Five-year PFS from XCEL” value ([2]; all patients) of the same molecule?
**A.** 57%

**Q.** What about the “median OS” value ([2]; all patients) of the same molecule?
**A.** 54 months

**Q.** And the CR rate ([2]; first-line responders)?
**A.** 90%

**Q.** And the “first-line responders who achieved CR” value ([2]; in vivo)?
**A.** Eight of nine

**Q.** What about the “median time to CR” value ([2]; in vivo) of the same molecule?
**A.** 6.5 months

**Q.** And the “median time to relapse from CR date” value ([2]; in vivo)?
**A.** 14 months

**Q.** What about the “Five-year PFS from XCEL” value ([2]; none-surgical group / unresected CR patients) of the same molecule?
**A.** 71% and 70%

**Q.** What about the “Five-year OS” value ([2]; none-surgical patients / unresected CR patients) of the same molecule?
**A.** 92%

**Q.** What about the “confirmed pathological CR” value ([2]; one patient) of the same molecule?
**A.** 5%

**Q.** And the “median duration of CR” value ([2]; resected patients)?
**A.** 13 months

**Q.** And the relapse ([2]; resected patients)?
**A.** 67%

**Q.** What about the CR rate ([2]; retroperitoneal nodal metastasis, with radiation) of the same molecule?
**A.** 50%

**Q.** What about the “patients who discontinued XCEL and remained in CR” value ([2]; six of 14 patients, median follow-up of 36 months) of the same molecule?
**A.** 43%

**Q.** And the “median duration of CR” value ([2]; unresected patients)?
**A.** not reached

**Q.** And the relapse ([2]; unresected patients)?
**A.** 29%

**Q.** And the “sustained CR rate” value ([2]; unresected patients)?
**A.** 70%

**Q.** And the CR site ([2]; unresected patients, carcinomatosis)?
**A.** 21%

**Q.** And the CR site ([2]; unresected patients, liver)?
**A.** 36%

**Q.** What about the CR site ([2]; unresected patients, nodal disease) of the same molecule?
**A.** 43%
